Measured values taken from patent publication US6420367B1, “Pyrimidine derivatives exhibiting antitumor activity” (Shionogo & Co., Ltd., priority 1998, dated 2002).
In brackets after ≈: the same amount, converted by molar mass.

Legend:
[1] = test system: DT-R cells (pRRE3-luc-transfected v-ki-ras-transformed NIH3T3 cells); signal derived from Ras oncogene products; assay: Inhibitory effect against cellular signaling derived from Ras oncogene products: luciferase reporter, dissociation of DT-R from DT-C activity (MAC); type: cell-based, mouse; conditions: minimal tested concentration at which luciferase activities of DT-C cells and DT-R cells dissociated
How it was run: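 DT-R (pRRE3-luc) and control DT-C (pGV-P) v-Ki-ras NIH3T3 cells were exposed 24 h to compound in 3-fold dilutions in DMEM/10% FCS at 37 °C, then lysed for luciferase luminescence. MAC is the lowest tested concentration at which DT-R and DT-C activities dissociate.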

[2] = test system: DT-C cells (pGV-P-transfected v-ki-ras-transformed NIH3T3 cells); assay: Luciferase activity in control DT-C cells (IC50-C): non-specific transcription-inhibitory effect or cytotoxicity; type: cell-based, mouse; conditions: tested concentration nearest to 50% inhibition in DT-C cells; index of non-specific transcription inhibition or cytotoxicity
Excerpt: Test Example 1 Inhibitory Effect Against Cellular Signaling Derived From Ras Oncogene Products
1) Establishment of Cell Lines Used in Assay
Based on the reporter plasmid (pGV-P (Toyo Ink, Japan)), in which luciferase gene was ligated to SV40-derived minimal promoter, we constructed a plasmid designated pRRE3-luc by inserting 3 copies of chemically synthesized oligonucleotides (Sequence: CAGGATATGACTCT, derived from mouse NVL-3 (M. A. Reddy et al.(1992)Mol. Endocrinol., 6, 1051)) into upstream of the promoter. v-ki-ras-transformed NIH3T3 cells (DT cells, provided by Dr. Makoto Noda (Kyoto Univ., School of medicine)) were transfected with this plasmid by liposome-mediated transfection and transfected cell lines stably incorporated and maintained each plasmid were obtained. We named pGV-P and pRRE3-transfected cell line as DT-C and DT-R, respectively and used in the assay described below.
2) Preparation of Samples
i) All the cell lines were cultured in Dulbecco's Modified Essential Medium (DMEM: 10% Fetal Calf Serum(FCS: Hyclone, USA)) including […] kanamycin (Meiji Seika, Japan) in humidified incubator under condition of 5% CO2 at 37° C.
ii) DT-C and DT-R cells were seeded at 2500 cells/well into flat-bottom 96 well multiplate (Sumitomo bakelite) and incubated for 24 hours.
iii) Test compounds were prepared as 1 mg/ml DMSO solution.
iv) The solution of test compounds were added to the culture. Tested compounds are used at the concentration from […] to 0.51 ng/ml with by 3-fold dilution.
v) After 24 hours, the culture supernatant was completely aspirated and […] of cell-lysing solution (PGC-50 (Toyo Ink, Japan)) was added before cells were dried up. In order to the cells were lysed completely, multiwell plates were left at room temperature for 10 to 30 min. The plates were wrapped up and stored at −20° C. till the day of measurement.
3) Measurement of Samples
i) Melt the samples by putting 96 well multiplate at 37° C. and add 90 μl/well 25 mM Tris (pH 7.5).
ii) Transfer 50 μl of the sample (110 μl) to the 96 well microplate for measurement (Microlite 1 (Dynatech)).
iii) Measure the samples by the luminometer, LUMINOUS CT9000D (Dia-Yatron, Japan). We used Pickagene luminescence kit PGL2000 or LT2.0 (Toyo Ink, Japan) as substrates for luminescence measurement (50 μl/well).
4) Judgment of the Results
i) The luciferase activity of DT-C cells and DT-R cells were plotted in the graph where the relative activity and the compound concentration were expressed as Y-axis and X-axis, respectively. We judged by the degree of dissociation between the activities of DT-C cells and DT-R cells as an index.
ii) Concretely, efficacy of the compound was expressed by two values described below.
b) Among the points of concentration tested, the concentration which is the nearest to 50% inhibition concentration at DT-C cells (IC50-C), was shown as an index of non-specific transcription-inhibitory effect or of cytotoxicity. In case of positive compounds, 50% inhibition concentration above the area of active concentration in DT-C cells was expressed as IC50-C.

[3] = test system: human colon cancer HT29; assay: In vitro cell growth inhibition test, MTT assay; type: cell-based; conditions: MTT assay 4 days after compound addition
How it was run: (§1)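 In vitro testing uses the MTT assay. The same panel includes human pancreas cancer PANC-1.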

[4] = test system: human squamous lung cancer Ma44; assay: In vitro cell growth inhibition test, MTT assay; type: cell-based; conditions: MTT assay 4 days after compound addition
How it was run: as §1

[5] = test system: human pancreas cancer PANC-1; assay: In vitro cell growth inhibition test, MTT assay; type: cell-based; conditions: MTT assay 4 days after compound addition
How it was run: as §1

[6] = test system: human squamous lung cancer RERF-RC-AI; assay: In vitro cell growth inhibition test, MTT assay; type: cell-based; conditions: MTT assay 4 days after compound addition
How it was run: as §1

[7] = test system: human lung adenocarcinoma A549; assay: In vitro cell growth inhibition test, MTT assay; type: cell-based; conditions: MTT assay 4 days after compound addition
How it was run: as §1

Row | Compound | MAC (Minimal Active Concentration) [1] [µg/mL] | IC50-C [2] [µg/mL] | IC50, HT29 [3] [ng/mL] | IC50, Ma44 [4] [ng/mL] | IC50, PANC-1 [5] [ng/mL] | IC50, RERF-LC-AI [6] [ng/mL] | IC50, A549 [7] [ng/mL]
1 | CCCNC(=Nc1nc(C)ncc1CSc1nnc(-c2ccc([N+](=O)[O-])cc2)o1)NCCC [Compound A-127] | 0.0137 | 3.33 (≈ 7.08 µM) | 18 (≈ 0.0383 µM) | 17 (≈ 0.0361 µM) | 17 (≈ 0.0361 µM) | 15 (≈ 0.0319 µM) | 28 (≈ 0.0595 µM)
2 | CCNC(=Nc1nc(C)ncc1CSc1nnc(-c2ccc(C)cc2N)o1)NCC [Compound A-63] | 0.0412 | 3.33 (≈ 7.81 µM) |  | 53 (≈ 0.124 µM) | 8.7 (≈ 0.0204 µM) | 6.0 (≈ 0.0141 µM) | 
3 | CCNC(=Nc1nc(CC)ncc1CSc1nnc(-c2ccccc2N)o1)NCC [Compound A-37] | 0.0412 | 3.33 (≈ 7.81 µM) | 30 (≈ 0.0703 µM) | 240 (≈ 0.563 µM) | 25 (≈ 0.0586 µM) | 21 (≈ 0.0492 µM) | 
4 | CCCNC(=Nc1ncncc1CSc1nnc(-c2ccc([N+](=O)[O-])cc2)o1)NCCC [Compound A-155] | 0.00457 | 3.33 (≈ 7.29 µM) | 80 (≈ 0.175 µM) | 9 (≈ 0.0197 µM) | 9 (≈ 0.0197 µM) | 6 (≈ 0.0131 µM) | 
5 | CCNC(=Nc1ncncc1CSc1nnc(-c2ccoc2)o1)NCC [Compound D-30] | 1.11 | >10 | 33 (≈ 0.0884 µM) | 2400 (≈ 6.43 µM) |  | 46 (≈ 0.123 µM) | 100 (≈ 0.268 µM)
6 | CCNC(=Nc1nc(C)ncc1CSc1nnc(-c2ccsc2NC(C)=O)o1)NCC [Compound D-36] | 0.0412 | >10 | 49 (≈ 0.106 µM) | 65 (≈ 0.141 µM) |  | 23 (≈ 0.0499 µM) | 32 (≈ 0.0695 µM)
7 | CCNC(=Nc1nc(C)ncc1CSc1nnc(-c2ccc(Cl)cc2NC(C)=O)o1)NCC [Compound A-61] | <0.000508 | >10 |  | 16 (≈ 0.0327 µM) | 6.3 (≈ 0.0129 µM) | 4.1 (≈ 0.00838 µM) | 
8 | CCNC(=Nc1nc(C)ncc1CSc1nnc(-c2ccc(Br)cc2)o1)NCC [Compound A-108] | 0.123 | >10 | 22 (≈ 0.0462 µM) | 29 (≈ 0.0609 µM) | 27 (≈ 0.0567 µM) |  | 27 (≈ 0.0567 µM)
9 | CCNC(=Nc1nc(CC)ncc1CSc1nnc(-c2ccc(N)cc2)o1)NCC [Compound A-154] | 0.0412 | >10 | 12 (≈ 0.0281 µM) | 40 (≈ 0.0938 µM) | 18 (≈ 0.0422 µM) | 8 (≈ 0.0188 µM) | 
10 | CCNC(=Nc1nc(C)ncc1CSc1nnc(-c2ccccc2NC(=O)CC)o1)NCC [Compound A-26] | 0.370 | >10 |  | 55 (≈ 0.117 µM) |  | 16 (≈ 0.0341 µM) | 60 (≈ 0.128 µM)
11 | CCCNC(N)=Nc1nc(C)ncc1CSc1nnc(-c2ccc([N+](=O)[O-])cc2)o1 [Compound A-158] | 0.0412 | >10 | 25 (≈ 0.0583 µM) | 32 (≈ 0.0747 µM) | 30 (≈ 0.07 µM) | 7 (≈ 0.0163 µM) | 
12 | CCNC(=Nc1ncncc1CSc1nnc(-c2ccc(N)cc2)o1)NCCOC(C)=O [Compound A-112] | 1.11 | >10 | 64 (≈ 0.14 µM) | 2000 (≈ 4.38 µM) |  | 23 (≈ 0.0504 µM) | 380 (≈ 0.832 µM)
13 | CCNC(=Nc1nc(C)ncc1CSc1nnc(-c2ccccc2N)o1)NCC [Compound A-24] | 0.0137 | 3.33 (≈ 8.07 µM) |  | 28 (≈ 0.0679 µM) |  | 7.1 (≈ 0.0172 µM) | 26 (≈ 0.063 µM)
14 | CCNC(=Nc1ncncc1CSc1nnc(-c2ccc(C(N)=S)cc2)o1)NCC [Compound A-123] | 1.11 | >10 | 41 (≈ 0.0926 µM) | 90 (≈ 0.203 µM) |  | 34 (≈ 0.0768 µM) | 150 (≈ 0.339 µM)
15 | CCNC(=Nc1ncncc1CSc1nnc(-c2ccsc2)o1)NCC [Compound D-21] | 0.37 | >10 | 16 (≈ 0.0411 µM) | 350 (≈ 0.899 µM) |  | 13 (≈ 0.0334 µM) | 49 (≈ 0.126 µM)
16 | CCNC(=Nc1nc(C)ncc1CSc1nnc(-c2ccc(F)cc2NC(C)=O)o1)NCC [Compound A-60] | <0.000508 | >10 |  | 12 (≈ 0.0254 µM) | 3.9 (≈ 0.00825 µM) | 4.0 (≈ 0.00846 µM) | 
17 | CCNC(=Nc1ncncc1CSc1nnc(-c2ccc([N+](=O)[O-])cc2OC)o1)NCC [Compound A-124] | 0.0137 | >10 | 28 (≈ 0.0611 µM) | 24 (≈ 0.0523 µM) |  | 22 (≈ 0.048 µM) | 26 (≈ 0.0567 µM)
18 | CCNC(=Nc1ncncc1CSc1nnc(-c2ccc(F)cc2)o1)NCC [Compound A-110] | 0.123 | >10 | 7.7 (≈ 0.0192 µM) | 63 (≈ 0.157 µM) |  | 6 (≈ 0.0149 µM) | 42 (≈ 0.105 µM)
19 | CCCNC(N)=Nc1nc(C)ncc1CSc1nnc(-c2ccc(N)cc2)o1 [Compound A-157] | 0.0137 | >10 | 8 (≈ 0.0201 µM) | 44 (≈ 0.11 µM) | 15 (≈ 0.0376 µM) | 5 (≈ 0.0125 µM) | 
20 | CCNC(=Nc1nc(C)ncc1CSc1nnc(-c2ccc(Cl)cc2N)o1)NCC [Compound A-44] | <0.000508 | 3.33 (≈ 7.45 µM) | 6.1 (≈ 0.0136 µM) | 18 (≈ 0.0403 µM) | 160 (≈ 0.358 µM) | 6.1 (≈ 0.0136 µM) | 
21 | CCNC(=Nc1nc(C)ncc1CSc1nnc(-c2ccc(C(F)(F)F)cc2)o1)NCC [Compound A-106] | 0.370 | >10 | 43 (≈ 0.0924 µM) | 86 (≈ 0.185 µM) | 56 (≈ 0.12 µM) |  | 82 (≈ 0.176 µM)
22 | CCNC(=Nc1ncncc1CSc1nnc(-c2ccc(C)nc2)o1)NCC [Compound D-29] | 1.11 | >10 | 90 (≈ 0.226 µM) | 520 (≈ 1.3 µM) |  | 110 (≈ 0.276 µM) | 220 (≈ 0.552 µM)
23 | CCCNC(=Nc1nc(C)ncc1CSc1nnc(-c2ccccc2N)o1)NCC [Compound A-36] | 0.0412 | 3.33 (≈ 7.81 µM) | 15 (≈ 0.0352 µM) | 26 (≈ 0.061 µM) | 14 (≈ 0.0328 µM) | 7.2 (≈ 0.0169 µM) | 
